Here are results for four compounds from ChEMBL document CHEMBL1139255, “Structure-activity relationship studies of 5-benzylaminoimidazo[1,2-c]pyrimidine-8-carboxamide derivatives as potent, highly selective ZAP-70 kinase inhibitors” (Bioorg Med Chem, 2009).

A word on the IC50: it is the point on the concentration scale where inhibition reaches its midpoint. What is called inhibition is the change of the read-out against control, counted positive when it falls.

Some results are limits rather than exact numbers.

For test [1], the target named is Mitogen-activated protein kinase 14 (Homo sapiens, UniProt Q16539). As to the kind of experiment: Inhibition of p38 alpha.
Test [2] has as its target T1, Tyrosine-protein kinase ZAP-70 (Homo sapiens, UniProt P43403).
T1 sequence (P43403 whole entry): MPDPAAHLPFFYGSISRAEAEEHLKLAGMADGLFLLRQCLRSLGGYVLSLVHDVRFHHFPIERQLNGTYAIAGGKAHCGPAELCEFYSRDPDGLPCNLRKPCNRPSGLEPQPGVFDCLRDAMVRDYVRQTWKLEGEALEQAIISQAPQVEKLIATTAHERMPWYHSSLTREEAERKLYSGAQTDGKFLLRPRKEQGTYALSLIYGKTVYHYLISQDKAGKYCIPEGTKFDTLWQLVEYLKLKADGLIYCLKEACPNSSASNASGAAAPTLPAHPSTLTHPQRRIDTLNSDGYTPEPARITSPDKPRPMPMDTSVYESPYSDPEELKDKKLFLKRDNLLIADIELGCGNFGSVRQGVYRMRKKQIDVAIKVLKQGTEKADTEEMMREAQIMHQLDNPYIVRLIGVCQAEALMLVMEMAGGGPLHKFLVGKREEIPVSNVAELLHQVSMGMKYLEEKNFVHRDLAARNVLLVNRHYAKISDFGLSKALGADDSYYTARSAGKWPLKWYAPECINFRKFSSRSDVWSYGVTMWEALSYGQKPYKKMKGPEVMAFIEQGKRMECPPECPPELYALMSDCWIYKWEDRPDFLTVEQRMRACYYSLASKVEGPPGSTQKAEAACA
As to the kind of experiment: Inhibition of human ZAP70 (Leu325 to Ala619) expressed in Sf9 cells by coupled spectrophotometric enzyme assay. In kind it is cell-based.

Test [3] concerns the target Mitogen-activated protein kinase 3 (Homo sapiens, UniProt P27361). As to the kind of experiment: Inhibition of ERK1.
Test [4] has as its target Proto-oncogene tyrosine-protein kinase Src (Homo sapiens, UniProt P12931). As to the kind of experiment: Inhibition of Src.
In test [5] the target is T2, Mitogen-activated protein kinase 8 (Homo sapiens, UniProt P45983). As to the kind of experiment: Inhibition of JNK1.
Test [6] addresses Tyrosine-protein kinase Lck (Homo sapiens, UniProt P06239). As to the kind of experiment: Inhibition of Lck.
The target of test [7] is T3, Epidermal growth factor receptor (Homo sapiens, UniProt P00533). As to the kind of experiment: Inhibition of EGFR.
The target in test [8] is Protein kinase C beta type (Homo sapiens, UniProt P05771). As to the kind of experiment: Inhibition of PKC beta2.
Test [9] concerns the target T2, Mitogen-activated protein kinase 8. As to the kind of experiment: Inhibition of JNK1 at 10 uM.
The target in test [10] is T3, Epidermal growth factor receptor. As to the kind of experiment: Inhibition of EGFR at 10 uM.
The target in test [11] is Tyrosine-protein kinase SYK (Homo sapiens) (UniProt P43405). As to the kind of experiment: Inhibition of Syk.

Chain of Tyrosine-protein kinase Lck (P06239 whole entry): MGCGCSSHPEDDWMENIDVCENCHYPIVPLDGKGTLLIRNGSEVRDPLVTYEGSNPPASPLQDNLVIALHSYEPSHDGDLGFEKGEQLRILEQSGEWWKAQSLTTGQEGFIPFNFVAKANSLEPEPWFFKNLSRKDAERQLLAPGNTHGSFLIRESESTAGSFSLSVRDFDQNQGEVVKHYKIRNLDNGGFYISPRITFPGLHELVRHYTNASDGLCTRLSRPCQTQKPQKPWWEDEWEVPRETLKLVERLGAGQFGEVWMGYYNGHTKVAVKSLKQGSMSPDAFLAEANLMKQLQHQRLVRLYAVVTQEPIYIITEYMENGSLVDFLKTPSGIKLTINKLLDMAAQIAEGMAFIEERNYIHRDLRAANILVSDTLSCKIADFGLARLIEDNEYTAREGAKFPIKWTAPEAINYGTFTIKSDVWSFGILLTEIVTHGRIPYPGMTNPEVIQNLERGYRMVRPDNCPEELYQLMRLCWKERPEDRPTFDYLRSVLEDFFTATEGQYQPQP
Chain of Mitogen-activated protein kinase 3 (P27361 whole entry): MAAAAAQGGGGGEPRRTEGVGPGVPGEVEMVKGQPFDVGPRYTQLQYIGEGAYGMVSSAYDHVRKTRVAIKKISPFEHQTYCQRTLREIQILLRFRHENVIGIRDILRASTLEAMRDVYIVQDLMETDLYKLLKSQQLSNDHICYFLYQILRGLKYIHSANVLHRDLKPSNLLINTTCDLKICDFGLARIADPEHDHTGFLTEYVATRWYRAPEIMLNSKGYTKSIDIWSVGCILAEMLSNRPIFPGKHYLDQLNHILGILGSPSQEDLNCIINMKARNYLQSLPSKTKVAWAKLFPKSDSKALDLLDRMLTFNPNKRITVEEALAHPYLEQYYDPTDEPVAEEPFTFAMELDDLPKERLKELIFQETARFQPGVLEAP
T2 sequence (P45983 whole entry): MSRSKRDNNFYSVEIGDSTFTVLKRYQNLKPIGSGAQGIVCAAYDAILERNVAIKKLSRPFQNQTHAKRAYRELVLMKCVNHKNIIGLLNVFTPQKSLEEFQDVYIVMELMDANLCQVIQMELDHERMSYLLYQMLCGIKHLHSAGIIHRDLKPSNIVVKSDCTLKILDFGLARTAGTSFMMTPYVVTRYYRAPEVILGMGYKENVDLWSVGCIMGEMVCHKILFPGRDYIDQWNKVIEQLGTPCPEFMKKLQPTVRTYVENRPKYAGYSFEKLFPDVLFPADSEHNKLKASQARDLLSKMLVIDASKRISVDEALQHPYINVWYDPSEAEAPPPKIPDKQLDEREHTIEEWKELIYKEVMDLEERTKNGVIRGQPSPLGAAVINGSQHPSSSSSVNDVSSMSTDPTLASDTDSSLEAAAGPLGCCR
Chain of Protein kinase C beta type (P05771 whole entry): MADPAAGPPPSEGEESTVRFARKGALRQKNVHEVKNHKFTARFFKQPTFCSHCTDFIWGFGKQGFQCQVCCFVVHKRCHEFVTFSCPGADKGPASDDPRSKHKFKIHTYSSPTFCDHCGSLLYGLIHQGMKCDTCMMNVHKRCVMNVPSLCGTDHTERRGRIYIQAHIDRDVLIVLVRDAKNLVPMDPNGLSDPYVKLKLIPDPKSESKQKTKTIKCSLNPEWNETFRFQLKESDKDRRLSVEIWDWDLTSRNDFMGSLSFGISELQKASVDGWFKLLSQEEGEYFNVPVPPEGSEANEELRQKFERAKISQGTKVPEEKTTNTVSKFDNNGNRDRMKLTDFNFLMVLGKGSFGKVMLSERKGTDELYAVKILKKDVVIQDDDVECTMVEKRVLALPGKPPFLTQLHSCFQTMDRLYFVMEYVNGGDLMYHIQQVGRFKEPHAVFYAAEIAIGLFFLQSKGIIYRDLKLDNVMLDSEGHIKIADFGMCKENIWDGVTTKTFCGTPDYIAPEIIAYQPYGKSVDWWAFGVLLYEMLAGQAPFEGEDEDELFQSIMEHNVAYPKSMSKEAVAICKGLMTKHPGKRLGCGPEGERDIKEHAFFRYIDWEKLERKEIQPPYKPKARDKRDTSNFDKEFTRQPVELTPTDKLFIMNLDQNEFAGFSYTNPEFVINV
Chain of Mitogen-activated protein kinase 14 (Q16539 whole entry): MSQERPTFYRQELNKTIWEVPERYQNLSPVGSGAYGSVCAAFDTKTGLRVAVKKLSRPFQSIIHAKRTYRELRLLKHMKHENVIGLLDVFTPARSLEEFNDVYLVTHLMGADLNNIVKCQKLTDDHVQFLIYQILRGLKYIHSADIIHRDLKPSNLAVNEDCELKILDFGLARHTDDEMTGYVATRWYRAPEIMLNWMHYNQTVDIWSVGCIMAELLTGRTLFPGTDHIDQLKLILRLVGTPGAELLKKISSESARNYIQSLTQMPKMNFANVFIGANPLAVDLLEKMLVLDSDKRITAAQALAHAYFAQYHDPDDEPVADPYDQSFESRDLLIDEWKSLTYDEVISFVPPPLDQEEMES
T3 sequence (P00533 whole entry): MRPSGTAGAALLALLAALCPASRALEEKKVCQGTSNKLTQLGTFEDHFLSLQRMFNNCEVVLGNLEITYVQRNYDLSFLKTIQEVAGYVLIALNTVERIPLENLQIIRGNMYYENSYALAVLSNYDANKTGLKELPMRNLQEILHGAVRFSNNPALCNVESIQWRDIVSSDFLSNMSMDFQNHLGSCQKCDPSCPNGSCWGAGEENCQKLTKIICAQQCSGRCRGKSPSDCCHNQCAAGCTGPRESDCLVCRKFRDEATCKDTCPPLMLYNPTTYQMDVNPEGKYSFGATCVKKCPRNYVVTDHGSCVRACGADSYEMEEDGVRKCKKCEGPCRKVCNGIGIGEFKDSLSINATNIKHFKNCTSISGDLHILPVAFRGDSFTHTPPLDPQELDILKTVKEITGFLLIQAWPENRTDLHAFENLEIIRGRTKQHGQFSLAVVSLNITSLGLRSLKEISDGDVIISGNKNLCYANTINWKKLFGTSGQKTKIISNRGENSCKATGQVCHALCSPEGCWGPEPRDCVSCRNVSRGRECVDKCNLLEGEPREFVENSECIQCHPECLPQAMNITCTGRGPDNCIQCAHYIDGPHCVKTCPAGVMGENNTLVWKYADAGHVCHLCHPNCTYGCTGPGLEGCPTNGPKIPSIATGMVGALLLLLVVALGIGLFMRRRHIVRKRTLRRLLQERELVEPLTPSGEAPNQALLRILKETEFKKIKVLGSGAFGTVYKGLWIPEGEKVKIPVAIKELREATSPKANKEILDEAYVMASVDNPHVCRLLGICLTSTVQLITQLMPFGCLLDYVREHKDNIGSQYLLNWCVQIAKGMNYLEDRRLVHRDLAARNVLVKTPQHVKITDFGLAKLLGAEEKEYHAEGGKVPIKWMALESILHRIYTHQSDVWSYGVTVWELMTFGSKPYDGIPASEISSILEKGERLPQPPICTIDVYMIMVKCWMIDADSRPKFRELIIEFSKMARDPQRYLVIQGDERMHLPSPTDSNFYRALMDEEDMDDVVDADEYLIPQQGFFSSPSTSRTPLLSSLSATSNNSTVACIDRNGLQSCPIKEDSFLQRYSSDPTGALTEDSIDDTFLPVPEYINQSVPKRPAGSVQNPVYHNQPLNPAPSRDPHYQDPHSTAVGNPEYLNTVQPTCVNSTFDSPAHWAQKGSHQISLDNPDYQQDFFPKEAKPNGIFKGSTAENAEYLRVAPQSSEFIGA
Chain of Proto-oncogene tyrosine-protein kinase Src (P12931 2-536 limits assumed): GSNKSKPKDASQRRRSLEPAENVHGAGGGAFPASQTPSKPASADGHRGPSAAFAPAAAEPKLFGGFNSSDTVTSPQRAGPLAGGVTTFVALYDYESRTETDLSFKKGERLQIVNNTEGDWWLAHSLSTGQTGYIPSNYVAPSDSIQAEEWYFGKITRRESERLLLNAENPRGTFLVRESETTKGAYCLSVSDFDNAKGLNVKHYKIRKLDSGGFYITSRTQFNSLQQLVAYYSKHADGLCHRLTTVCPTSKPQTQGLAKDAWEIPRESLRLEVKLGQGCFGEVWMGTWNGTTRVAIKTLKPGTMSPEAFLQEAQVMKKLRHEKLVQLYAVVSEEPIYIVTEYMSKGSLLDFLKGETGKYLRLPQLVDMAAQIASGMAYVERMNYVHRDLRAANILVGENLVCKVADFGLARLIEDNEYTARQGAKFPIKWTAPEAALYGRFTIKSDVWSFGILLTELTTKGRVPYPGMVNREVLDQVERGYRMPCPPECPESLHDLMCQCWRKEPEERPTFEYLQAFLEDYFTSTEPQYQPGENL

`CCOC(=O)/C=C/c1ccc(CNc2nc(Nc3cc(OC)cc(OC)c3)c(C(N)=O)c3nccn23)cc1`: the concentration for half-maximal inhibition (IC50) in test [1] was over 10 µM; in test [2], 0.088 µM; in test [3], over 10 µM; in test [4], over 10 µM; in [5] it was over 10 µM; in [6], over 12.5 µM. Besides, the IC50 in test [7] and in test [8] was over 10 µM throughout.

As for `COc1cc(Nc2nc(NCc3ccc(/C=C/C(=O)O)cc3)n3ccnc3c2C(N)=O)cc(OC)c1`, the concentration for half-maximal inhibition (IC50) in [1] is over 10 µM; in test [2] it was 0.047 µM; in test [3], over 10 µM; in test [4], over 10 µM; in test [6], over 10 µM; in test [8] it was over 10 µM. Besides, the inhibition in test [9] came out at 90%; in [10] it was 89%.

In turn, `CC(=O)N[C@@H](Cc1ccc(OP(=O)(O)O)cc1)C(=O)N[C@@H](CO)c1nc(Cc2ccc(C(F)(F)F)cc2)no1` displayed a half-maximal inhibitory concentration (IC50) in [11] of over 500 µM.

On to `COc1cc(Nc2nc(NCc3ccccc3)n3ccnc3c2C(N)=O)cc(OC)c1`, for which the values for the IC50 in test [2] and in test [6] were 0.4 µM and over 25 µM, respectively.
